Measured values as given in patent US11787825B2 (priority 2021, dated 2023).
Converted amounts (≈) assume the structure as drawn. Where two headings read alike, the source gives them in different places. Marks after values point to notes of the source that are not given here.

Assays:
physchem = details: 25 °C, thermodynamic from solid
[1] = Beagle, in vivo, po; for Dog F % (suspension): pH 2
[2] = 0.1N HCL, 1.0% DMSO, 24-hour incubation at ambient temperature, maximum theoretical compound concentration 100 μM
[3] = 1×PBS buffer (pH 7.4), 1.0% DMSO, 24-hour incubation at ambient temperature, maximum theoretical compound concentration 100 μM
[4] = fasted state simulated intestinal fluid (FaSSIF), fassif
[5] = fed state simulated intestinal fluid (FeSSIF), fessif

SMILES | pH 2 solubility [2] [μM] | pH 7 solubility [3] [μM] | solubility (physchem; [4]) [µg/mL] | solubility (physchem; [5]) [µg/mL] | Dog F % (suspension) [1] [%] | pH 2 solubility (pH 2) | pH 7 solubility (pH 7.4) | solubility (physchem; fassif) [µg/mL] | solubility (physchem; fessif) [µg/mL] | Dog F % (solution) [1]
CC(C)(CCN(CC(=O)O)C(=O)OCOP(=O)(O)O)C(=O)N(c1nn(CC(F)(F)F)c2c(-c3ccc(C#CC(C)(C)S(C)(=O)=O)nc3[C@H](Cc3cc(F)cc(F)c3)NC(=O)Cn3nc(C(F)(F)F)c4c3C(F)(F)[C@@H]3C[C@H]43)ccc(Cl)c12)S(C)(=O)=O [Compound 43, N-(4-(N-(4-chloro-7-(2-((S)-1-(2-((3bS,4aR)-5,5-difluoro-3-(trifluoromethyl)-3b,4,4a,5-tetrahydro-1H-cyclopropa[3,4]cyclopenta[1,2-c]pyrazol-1-yl)acetamido)-2-(3,5-difluorophenyl)ethyl)-6-(3-methyl-3-(methylsulfonyl)but-1-yn-1-yl)pyridin-3-yl)-1-(2,2,2-trifluoroethyl)-1H-indazol-3-yl)methylsulfonamido)-3,3-dimethyl-4-oxobutyl)-N-(((phosphonooxy)methoxy)carbonyl)glycine] | 2 | 100 | 2900 (≈ 2250 µM) | > 5770 | 23 |  |  |  |  | 
Cc1cc(CC(=O)O)c(C(C)(C)CC(=O)N(c2nn(CC(F)(F)F)c3c(-c4ccc(C#CC(C)(C)S(C)(=O)=O)nc4[C@H](Cc4cc(F)cc(F)c4)NC(=O)Cn4nc(C(F)(F)F)c5c4C(F)(F)[C@@H]4C[C@H]54)ccc(Cl)c23)S(C)(=O)=O)c(OP(=O)(O)O)c1 [Compound 44] |  |  |  |  | 27 | 1/100 μM | 1/100 μM | 2870 (≈ 2210 µM) | 460 (≈ 355 µM) | 
CC(C)(Cc1ccccc1OP(=O)(O)O)C(=O)N(c1nn(CC(F)(F)F)c2c(-c3ccc(C#CC(C)(C)S(C)(=O)=O)nc3[C@H](Cc3cc(F)cc(F)c3)NC(=O)Cn3nc(C(F)(F)F)c4c3C(F)(F)[C@@H]3C[C@H]43)ccc(Cl)c12)S(C)(=O)=O [Compound 46, 2-(3-(N-(4-chloro-7-(2-((S)-1-(2-((3bS,4aR)-5,5-difluoro-3-(trifluoromethyl)-3b,4,4a,5-tetrahydro-1H-cyclopropa[3,4]cyclopenta[1,2-c]pyrazol-1-yl)acetamido)-2-(3,5-difluorophenyl)ethyl)-6-(3-methyl-3-(methylsulfonyl)but-1-yn-1-yl)pyridin-3-yl)-1-(2,2,2-trifluoroethyl)-1H-indazol-3-yl)methylsulfonamido)-2,2-dimethyl-3-oxopropyl)phenyl dihydrogen phosphate] |  |  |  |  | 10 | 1/66 μM | 1/66 μM | 700 | > 2150 | 
Cc1cc(C(=O)O)cc(OP(=O)(O)O)c1C(C)(C)CC(=O)N(c1nn(CC(F)(F)F)c2c(-c3ccc(C#CC(C)(C)S(C)(=O)=O)nc3[C@H](Cc3cc(F)cc(F)c3)NC(=O)Cn3nc(C(F)(F)F)c4c3C(F)(F)[C@@H]3C[C@H]43)ccc(Cl)c12)S(C)(=O)=O [Compound 49, 4-(4-(N-(4-chloro-7-(2-((S)-1-(2-((3bS,4aR)-5,5-difluoro-3-(trifluoromethyl)-3b,4,4a,5-tetrahydro-1H-cyclopropa[3,4]cyclopenta[1,2-c]pyrazol-1-yl)acetamido)-2-(3,5-difluorophenyl)ethyl)-6-(3-methyl-3-(methylsulfonyl)but-1-yn-1-yl)pyridin-3-yl)-1-(2,2,2-trifluoroethyl)-1H-indazol-3-yl)methylsulfonamido)-2-methyl-4-oxobutan-2-yl)-3-methyl-5-(phosphonooxy)benzoic acid] |  |  |  |  | 20 | 3/100 μM | 3/100 μM | 384 (≈ 299 µM) | 390 (≈ 304 µM) | 
CN(C(=O)N(c1nn(CC(F)(F)F)c2c(-c3ccc(C#CC(C)(C)S(C)(=O)=O)nc3[C@H](Cc3cc(F)cc(F)c3)NC(=O)Cn3nc(C(F)(F)F)c4c3C(F)(F)[C@@H]3C[C@H]43)ccc(Cl)c12)S(C)(=O)=O)c1ncccc1CN(CC(=O)O)C(=O)OCOP(=O)(O)O [Compound 52, N-((2-(3-(4-chloro-7-(2-((S)-1-(2-((3bS,4aR)-5,5-difluoro-3-(trifluoromethyl)-3b,4,4a,5-tetrahydro-1H-cyclopropa[3,4]cyclopenta[1,2-c]pyrazol-1-yl)acetamido)-2-(3,5-difluorophenyl)ethyl)-6-(3-methyl-3-(methylsulfonyl)but-1-yn-1-yl)pyridin-3-yl)-1-(2,2,2-trifluoroethyl)-1H-indazol-3-yl)-1-methyl-3-(methylsulfonyl)ureido)pyridin-3-yl)methyl)-N-(((phosphonooxy)methoxy)carbonyl)glycine] | 2 | 100 | 1370 (≈ 1020 µM) | > 6260 | 24 |  |  |  |  | 
CN(C(=O)N(c1nn(CC(F)(F)F)c2c(-c3ccc(C#CC(C)(C)S(C)(=O)=O)nc3[C@H](Cc3cc(F)cc(F)c3)NC(=O)Cn3nc(C(F)(F)F)c4c3C(F)(F)[C@@H]3C[C@H]43)ccc(Cl)c12)S(C)(=O)=O)c1ncccc1COP(=O)(O)O [Compound 53, (2-(3-(4-chloro-7-(2-((S)-1-(2-((3bS,4aR)-5,5-difluoro-3-(trifluoromethyl)-3b,4,4a,5-tetrahydro-1H-cyclopropa[3,4]cyclopenta[1,2-c]pyrazol-1-yl)acetamido)-2-(3,5-difluorophenyl)ethyl)-6-(3-methyl-3-(methylsulfonyl)but-1-yn-1-yl)pyridin-3-yl)-1-(2,2,2-trifluoroethyl)-1H-indazol-3-yl)-1-methyl-3-(methylsulfonyl)ureido)pyridin-3-yl)methyl dihydrogen phosphate] |  |  |  |  | 5 | 2/78 μM | 2/78 μM | 391 | 958 | 
CN(C(=O)N(c1nn(CC(F)(F)F)c2c(-c3ccc(C#CC(C)(C)S(C)(=O)=O)nc3[C@H](Cc3cc(F)cc(F)c3)NC(=O)Cn3nc(C(F)(F)F)c4c3C(F)(F)[C@@H]3C[C@H]43)ccc(Cl)c12)S(C)(=O)=O)c1ncc(C(=O)O)cc1COP(=O)(O)O [Compound 62, 6-(3-(4-chloro-7-(2-((S)-1-(2-((3bS,4aR)-5,5-difluoro-3-(trifluoromethyl)-3b,4,4a,5-tetrahydro-1H-cyclopropa[3,4]cyclopenta[1,2-c]pyrazol-1-yl)acetamido)-2-(3,5-difluorophenyl)ethyl)-6-(3-methyl-3-(methylsulfonyl)but-1-yn-1-yl)pyridin-3-yl)-1-(2,2,2-trifluoroethyl)-1H-indazol-3-yl)-1-methyl-3-(methylsulfonyl)ureido)-5-((phosphonooxy)methyl)nicotinic acid] | 1 | 67 | 490 (≈ 390 µM) |  |  |  |  |  |  | 8 ^c %
